# Assay results published in ChEMBL document CHEMBL5727660, “Compounds for the treatment of pain” (2020).
# Biological target: Mu-type opioid receptor (Homo sapiens, UniProt P35372)
# Experiment: Competitive Displacement Assay: Membrane protein from CHO (Chinese Hamster Ovarian) cells that stably expressed one type of the cloned human opioid receptor were incubated with 12 different concentrations of the compound in the presence of 0.25 nM [3H]DAMGO, 0.2 nM [3H]naltrindole or 1 nM [3H]U69,593 in a final volume of 1 mL of 50 mM Tris-HCl, pH 7.5 at 25° C. Incubation times of 60 min were used for [3H]DAMGO and [3H]U69,593. Because of a slower association of [3H]naltrindole with the receptor, a 3 h incubation was used with this radioligand. Samples incubated with [3H]naltrindole also contained 10 mM MgCl2 and 0.5 mM phenylmethylsulfonyl fluoride. Nonspecific binding was measured by inclusion of 10 μM naloxone. The binding was terminated by filtering the samples through Schleicher & Schuell No. 32 glass fiber filters using a Brandel 48-well cell harvester. The filters were subsequently washed three times with 3 mL of cold 50 mM Tris-HCl, pH 7.5, and were counted in 2 mL Ecoscint A scintillation fluid. For [3H]naltrindole and [3H]U69,593 binding, the filters were soaked in 0.1% polyethylenimine for at least 60 min before use.
# Mu-type opioid receptor, sequence (P35372 whole entry): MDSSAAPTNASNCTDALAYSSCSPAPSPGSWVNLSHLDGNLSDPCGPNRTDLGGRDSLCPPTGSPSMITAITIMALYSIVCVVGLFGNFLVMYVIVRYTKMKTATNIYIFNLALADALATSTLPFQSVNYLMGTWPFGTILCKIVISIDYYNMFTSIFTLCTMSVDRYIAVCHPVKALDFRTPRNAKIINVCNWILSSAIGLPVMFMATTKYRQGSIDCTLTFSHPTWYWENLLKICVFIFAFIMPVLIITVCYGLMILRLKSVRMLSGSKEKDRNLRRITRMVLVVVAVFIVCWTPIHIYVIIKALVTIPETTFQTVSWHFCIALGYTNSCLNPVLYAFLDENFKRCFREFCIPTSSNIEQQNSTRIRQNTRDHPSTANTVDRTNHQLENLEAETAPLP
smiles,measurement,value
COC1(c2ccnc(C(N)=O)c2)C2CCCC1CN(Cc1cc3ccccc3[nH]1)C2 (stereo unspecified),Ki,< 1 nM
